# Entries after “also recorded” stand apart in the source; their conditions may differ. Read-outs that look alike come from different tables or passages of the source.
# Legend:
# CD163 = CD163 expression by flow cytometry, blood of treated cattle; conditions: monocytes/macrophages
# [1] = system: M. haemolytica (OSU-012103-BHI); conditions: 10 mg/kg
# upstream regulators = experiment: Lung tissue RNA sequence analysis, ingenuity pathway analysis; assay type: in vivo, mice; conditions: M9 32 mg/kg (T03)
# Description: In one murine P. multocida intranasal challenge study, mice were administered tulathromycin (16 mg/kg; T02), M9 (32 mg/kg; T03), or ceftiofur (9 mg/kg; T04) by subcutaneous injection 18 hours after bacterial challenge (5×10^3 CFU/mouse) for lung tissue RNA sequence analysis. […] Data was analyzed based on the number of genes being modulated in the same direction that were associated with a given upstream regulator. An activation z-score of 2 or greater is considered significant and the direction change is indicated by +(activated) or −(inhibited).
# IL-6 = experiment: Plasma IL-6 biomarker in bovine M. haemolytica challenge
# P. multocida 46572 = experiment: In vivo mouse lung infection challenge model (murine); design: species or system CD-1 female mice
# How it was run: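 CD-1 female mice were challenged intranasally with mid-log P. multocida 46572 (target 5×10^2 CFU/mouse), then given 20 mg/kg subcutaneously in buffered (~pH 5.4) propylene glycol/monothioglycerol/water. Mortality was followed to Day 10, analysed by generalized mixed model and survival analysis; harmonized survival is relative to vehicle and positive controls.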
# TNF-α = experiment: Whole blood assay, LPS stimulation, MSD cytokine detection; assay type: cell-based; conditions: Bos taurus, fresh whole bovine blood
# P. multocida = experiment: Murine P. multocida intranasal challenge study, survival; assay type: in vivo, mice; conditions: 5×10^3 CFU/mouse; subcutaneous 18 hours after challenge; tulathromycin 16 mg/kg, M9 32 mg/kg, ceftiofur 9 mg/kg
# [2] = system: Bovine primary cells (PBMCs, PMN/neutrophils) and tissue (trachea, lung) protein homogenates; experiment: Binding partner identification (NPOT, mass spectrometry); conditions: as compared to gamithromycin
# Description: To further characterize the direct activity of the compounds of the invention, experiments to identify the drug's direct binding host partners(s) were performed with the aim of identifying the potential biological targets. Bovine primary cells (peripheral blood mononuclear cells [PBMCs] and polymorphonuclear cells [PMN/neutrophils]) and tissue (trachea, lung) protein homogenates were mixed with M9 and the macrolide, gamithromicin as a comparator. Tissue interactions were allowed to form using a heterogeneous assembly method (nematic protein organization technique, NPOT; Inoviem Scientific); and traditional western blots to identify native-structure proteins bound to the compound. Mass spectrometry analysis identified eight proteins involved in the interaction with M9 as compared to gamithromycin. The antibacterial macrolide gamithromycin was used as a comparator to differentiate specific binding to M9. These proteins were considered to be either direct binding partners of the drug or closely involved in the drug:target interaction (Table 6).
# IL-1β = experiment: Whole blood assay, LPS stimulation, MSD cytokine detection; assay type: cell-based, bovine; conditions: top dose 500 μM; cellular toxicity signal
# natural BRD infection = experiment: Natural bovine respiratory disease study; assay type: in vivo, beef calves; conditions: 14-day observation
# Description: The primary clinical endpoint for efficacy was treatment failure/success over a 14-day observation period. Clinically normal beef calves (150-200 kg) at moderate risk for BRD were dosed on arrival to the feedlot. Animals (N=114/group) received saline (T01), 5 mg/kg M9 (T02) or 10 mg/kg M9 (T03); or Zactran (T04). […] Bacterial isolates were collected at necropsy and MICs were evaluated (Table 4).
# [3] = system: M. haemolytica (OSU-012103-BHI); experiment: In vivo bovine lung infection (intratracheal) challenge model
smiles,measurement,setting,value
"CCCNC[C@]1(O)[C@H](C)O[C@@H](O[C@H]2[C@H](C)[C@@H](O[C@@H]3O[C@H](C)C[C@H](NC)[C@H]3O)[C@](C)(O)C[C@@H](C)CN[C@H](C)[C@@H](O)[C@](C)(O)[C@@H](CC)OC(=O)[C@@H]2C)C[C@@]1(C)OC [Example M9, (2R,3S,4R,5R,8R,10R,11R,12S,13S,14R)-2-ethyl-3,4,10-trihydroxy-13-(((2R,4R,5S,6S)-5-hydroxy-4-methoxy-4,6-dimethyl-5-((propylamino)methyl)-tetrahydro-2H-pyran-2-yl)oxy)-11-(((2S,3R,4S,6R)-3-hydroxy-6-methyl-4-(methylamino)tetrahydro-2H-pyran-2-yl)oxy)-3,5,8,10,12,14-hexamethyl-1-oxa-6-azacyclopentadecan-15-one]",CD163 expression,CD163,suppressed; also recorded: mitigates the pathologic increase
same,lung lesion scores,[1]; inhaled or nasal,29
same,mortality,"[1]; separate study, vs. saline 38.9%",13%
same,"activation z-score, IFNγ",upstream regulators,−5.759
same,"activation z-score, IL-1β",upstream regulators,−5.947
same,"activation z-score, STAT1",upstream regulators,−2.787
same,"activation z-score, TNF",upstream regulators,−4.669
same,"activation z-score, lipopolysaccharide",upstream regulators,−6.725
same,"activation z-score, poly rl:rC-RNA",upstream regulators,−5.289
same,unique genes up or down regulated (with significance),upstream regulators; total lung tissue,at least 226
same,IL-6 levels,IL-6,significantly reduced
same,Mouse survival,"P. multocida 46572; M9 positive control, 20 mg/kg",90-100%
same,"clinical efficacy, P. multocida infection in mice","P. multocida 46572; mouse, in vivo",clinically efficacious
same,IC50,TNF-α,250 µM
same,Survival at Day 7,P. multocida,~50%
same,proteins involved in the interaction,[2],eight
same,overstimulation of IL-1B,IL-1β,> 500 µM
same,Percent failure (treatment failure),natural BRD infection; 5 mg/kg (T02),19.3%
same,Percent failure (treatment failure),natural BRD infection; 10 mg/kg (T03),8.8%
same,mortality,"[3]; No challenge, M9 10 mg/kg (T04)",0/6
same,Mortality (%),"[3]; second intratracheal challenge study, 10 mg/kg (T05)",12.5%
